Source: ChEMBL document CHEMBL1201862, “PubChem BioAssay data set” (2004)
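Following 48 hours of exposure in 96-well plates, responses at five concentrations were used to interpolate endpoints linearly. GI50 marks 50% less growth.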 Activity calls are given as the source filed them. Cut-off read from the data, not from the text of the source: active = GI50 up to about 1.1 µM and inactive = higher.

What was measured:
Assay in all cases: NCI anticancer screen, dose series, 48 h
OVCAR-5 = test system: OVCAR-5
UACC-257 = test system: UACC-257
SR = test system: SR
OVCAR-3 = test system: OVCAR-3
SK-MEL-28 = test system: SK-MEL-28
BT-549 = test system: BT-549
SF-295 = test system: SF-295
T47D = test system: T47D
Hs-578T = test system: Hs-578T
CAKI-1 = test system: CAKI-1
UO-31 = test system: UO-31
SNB-75 = test system: SNB-75
SF-539 = test system: SF-539
HOP-18 = test system: HOP-18
ACHN = test system: ACHN
M19-MEL = test system: M19-MEL
SF-268 = test system: SF-268
LXFL 529 = test system: LXFL 529
KM-20L2 = test system: KM-20L2
RXF 631 = test system: RXF 631

Measured: GI50

O=c1ccn(COC(COCc2ccccc2)COCc2ccccc2)c(=O)[nH]1
inactive: OVCAR-5 > 100 µM | UACC-257 > 100 µM | SR 62.8 µM | OVCAR-3 > 100 µM | SK-MEL-28 > 100 µM | BT-549 > 100 µM | SF-295 > 100 µM | T47D 64.1 µM | Hs-578T > 100 µM | CAKI-1 > 100 µM | UO-31 51.4 µM | SNB-75 > 100 µM

O=C(O)C1CCCCN1c1ccccc1[N+](=O)[O-] (stereo not drawn)
inactive: OVCAR-5 > 100 µM | UACC-257 > 100 µM | SR > 100 µM | SF-539 > 100 µM | HOP-18 > 100 µM | OVCAR-3 > 100 µM | ACHN > 100 µM | M19-MEL > 100 µM | SF-295 > 100 µM | CAKI-1 > 100 µM | UO-31 > 100 µM | SF-268 > 100 µM | LXFL 529 > 100 µM | SNB-75 > 100 µM | KM-20L2 > 100 µM

CCOC(=O)NC(Nc1ncccn1)(C(=O)OCC)C(F)(F)F (stereo not drawn)
inactive: OVCAR-5 > 100 µM | UACC-257 > 100 µM | SR > 100 µM | SF-539 > 100 µM | OVCAR-3 > 100 µM | SK-MEL-28 > 100 µM | ACHN > 100 µM | BT-549 > 100 µM | SF-295 > 100 µM | T47D 56 µM | Hs-578T > 100 µM | CAKI-1 > 100 µM | UO-31 > 100 µM | SF-268 > 100 µM | SNB-75 > 100 µM

O=C=C=P(c1ccccc1)(c1ccccc1)c1ccccc1
inactive: OVCAR-5 28.5 µM | UACC-257 27.8 µM | SR 86.7 µM | RXF 631 62.1 µM | SF-539 > 100 µM | HOP-18 21.6 µM | SK-MEL-28 > 100 µM | ACHN > 100 µM | M19-MEL 27.1 µM | SF-295 > 100 µM | CAKI-1 59.4 µM | UO-31 > 100 µM | SF-268 69.2 µM | LXFL 529 35 µM | SNB-75 23.5 µM

COc1ccc(C[C@H](N)C(=O)N2C[C@H](CO)C[C@H](n3ccc(=O)[nH]c3=O)C2)cc1
inactive: OVCAR-5 > 100 µM | SR > 100 µM | SF-539 > 100 µM | HOP-18 > 100 µM | OVCAR-3 > 100 µM | SK-MEL-28 > 100 µM | ACHN > 100 µM | M19-MEL > 100 µM | CAKI-1 > 100 µM | UO-31 > 100 µM | SF-268 > 100 µM | LXFL 529 > 100 µM | KM-20L2 > 100 µM

COC(=O)C1C(C)N1C (stereo not drawn)
inactive: UACC-257 > 100 µM | RXF 631 > 100 µM | SF-539 > 100 µM | OVCAR-3 > 100 µM | SK-MEL-28 > 100 µM | M19-MEL > 100 µM | LXFL 529 > 100 µM | SNB-75 > 100 µM
